Data published in patent publication US20110195403A1, “SYSTEMS AND METHODS FOR FERTILITY ANALYSIS” (priority 2010, published 2011).
Several values for one entry are separate records, joined by “and”; a condition that tells them apart may be missing. Identical values can stand only once. Like-named read-outs stand apart in the source and are kept apart here.

Key:
peroxidase = test: Peroxidase assay in saliva (Amplex Red); type: biochemical
Procedure: To determine the effect of various GRAS compounds as inhibitors of peroxidase activity, a standard assay using Amplex® Red (Life Technologies), which releases a fluorescent oxidation product.
The test compounds, such as GRAS materials or cocktails of same, were prepared at a concentration of 500 ppm in distilled water. For the assay, 50 μl samples of test compounds were mixed with 20-30 μl of saliva (either “pooled” or “unpooled”) prior to the addition of Amplex® Red. […] Reactions were allowed to run for 30 minutes during these assays.

Galactose Oxidase = conditions: dilute (3.5%) saliva; FIG. 13
Lysozyme = biological target: T1, Lysozyme (Homo sapiens, UniProt P61626); test: Lysozyme inhibition saliva screening (fluorescein-labeled Micrococcus lysodeikticus); type: biochemical; conditions: for inhibition of Lysozyme: 100% saliva samples (data not shown); for RFU Reading (60 mins): saliva, test compound prepared at 5,000 ppm; for Lysozyme Inhibitor Activity: dilute (3.5%) saliva, FIG. 12
T1 sequence (P61626 19-148): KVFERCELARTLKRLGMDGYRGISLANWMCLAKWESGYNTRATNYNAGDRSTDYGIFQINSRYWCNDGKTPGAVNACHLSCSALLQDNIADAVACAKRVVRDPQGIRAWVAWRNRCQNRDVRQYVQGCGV
Excerpt: Further details of these five compounds may also be seen in Table 5.

α-amylase = biological target: T2, α-amylase (Homo sapiens, UniProt P0DUB6); test: α-Amylase inhibition saliva screening (2-chloro-p-nitrophenol-maltotriose substrate, absorbance 405 nm); type: biochemical; conditions: for % Inhibition / % Std: relative to 100% Saliva Control; for α-amylase assay reading (absorbance at 405 nm), single replicate / α-amylase assay reading, Ave: test compound prepared at 5,000 ppm, saliva, 37° C.; for inhibition of α-Amylase: 100% saliva samples, FIG. 11; for α-Amylase Inhibitor Activity: dilute (3.5%) saliva, FIG. 10
T2 sequence (P0DUB6 16-511): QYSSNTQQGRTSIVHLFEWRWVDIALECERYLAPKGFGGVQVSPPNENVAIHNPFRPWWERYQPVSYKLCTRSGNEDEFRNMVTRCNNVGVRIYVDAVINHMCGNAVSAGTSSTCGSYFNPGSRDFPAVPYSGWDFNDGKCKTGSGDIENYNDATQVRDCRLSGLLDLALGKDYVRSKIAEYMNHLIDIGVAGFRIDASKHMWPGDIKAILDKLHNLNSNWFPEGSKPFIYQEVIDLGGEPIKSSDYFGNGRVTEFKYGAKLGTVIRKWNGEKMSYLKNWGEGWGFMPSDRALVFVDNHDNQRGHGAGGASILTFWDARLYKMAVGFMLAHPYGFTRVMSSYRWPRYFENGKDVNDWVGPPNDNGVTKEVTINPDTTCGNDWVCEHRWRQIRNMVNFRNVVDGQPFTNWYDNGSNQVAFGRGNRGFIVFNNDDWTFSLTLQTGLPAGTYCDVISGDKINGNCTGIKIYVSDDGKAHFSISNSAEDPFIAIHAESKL
Excerpt: Further details of these five compounds may also be seen in Table 4.

[1] = 500 ppm, pooled or unpooled saliva, 30 minutes, FIGS. 26-29

Compound: O=C(O)c1ccccc1 [CDI #16, Benzoic acid]
- peroxidase inhibition (peroxidase): significant peroxidase inhibition capabilities

Compound: Cn1c(=O)c2c(ncn2C)n(C)c1=O [CDI #33, Caffeine]
- peroxidase inhibition (peroxidase; [1]): significant peroxidase inhibition capabilities

Compound: COc1ccc(O)c(C(C)(C)C)c1 [CDI-039, 3-tert--butyl-hydroxyanisole]
- peroxidase inhibition (peroxidase; [1]): significant peroxidase inhibition capabilities
- Galactose Oxidase Inhibitor Activity (Galactose Oxidase): shown to have Galactose Oxidase Inhibitor Activity

Compound: O=C(O)c1ccccc1 [CDI-40, Benzoic acid]
- inhibition of Lysozyme (Lysozyme): shown to inhibit Lysozyme
- RFU Reading (60 mins) (Lysozyme): 35.82 RFU
- Lysozyme Inhibitor Activity (Lysozyme): shown to have Lysozyme Inhibitor Activity
- Galactose Oxidase Inhibitor Activity (Galactose Oxidase): shown to have Galactose Oxidase Inhibitor Activity

Compound: CC(=O)O [CDI-047, Acetic acid]
- inhibition of Lysozyme (Lysozyme): shown to inhibit Lysozyme
- RFU Reading (60 mins) (Lysozyme): 33.53 RFU
- Lysozyme Inhibitor Activity (Lysozyme): shown to have Lysozyme Inhibitor Activity
- Galactose Oxidase Inhibitor Activity (Galactose Oxidase): shown to have Galactose Oxidase Inhibitor Activity

Compound: Aluminum potassium sulfate dodecahydrate [CDI-42]
- peroxidase inhibition (peroxidase; [1]): significant peroxidase inhibition capabilities
- Galactose Oxidase Inhibitor Activity (Galactose Oxidase): shown to have Galactose Oxidase Inhibitor Activity
- % Inhibition (α-amylase; 0 min): 77.07%
- % Std (α-amylase; 0 min): 22.93%
- α-amylase assay reading (absorbance at 405 nm), single replicate (α-amylase; 0 min): 0.80 and 1.13 and 0.90 and 0.84
- α-amylase assay reading, Ave (α-amylase; 0 min): 0.92
- inhibition of α-Amylase (α-amylase): shown to inhibit α-Amylase
- % Inhibition (α-amylase; 5 min): 53.76%
- % Std (α-amylase; 5 min): 46.24%
- α-amylase assay reading (absorbance at 405 nm), single replicate (α-amylase; 5 min): 1.65 and 2.15 and 1.80 and 1.81
- α-amylase assay reading, Ave (α-amylase; 5 min): 1.85
- % Inhibition (α-amylase; 15 min): 42.65%
- % Std (α-amylase; 15 min): 57.35%
- α-amylase assay reading (absorbance at 405 nm), single replicate (α-amylase; 15 min): 2.37 and 2.38 and 2.25 and 2.17
- α-amylase assay reading, Ave (α-amylase; 15 min): 2.29
- α-Amylase Inhibitor Activity (α-amylase): shown to have α-Amylase Inhibitor Activity

Compound: Aluminum sulfate hydrate [CDI-34]
- % Inhibition (α-amylase; 0 min): 89.96%
- % Std (α-amylase; 0 min): 10.04%
- α-amylase assay reading, Ave (α-amylase; 0 min): 0.40
- α-amylase assay reading (absorbance at 405 nm), single replicate (α-amylase; 0 min, sulfate hydrate): 0.40 (2×) and 0.36 and 0.45
- inhibition of α-Amylase (α-amylase): shown to inhibit α-Amylase
- % Inhibition (α-amylase; 5 min): 87.39%
- % Std (α-amylase; 5 min): 12.61%
- α-amylase assay reading, Ave (α-amylase; 5 min): 0.50
- α-amylase assay reading (absorbance at 405 nm), single replicate (α-amylase; 5 min, sulfate hydrate): 0.49 and 0.50 (2×) and 0.52
- % Inhibition (α-amylase; 15 min): 85.98%
- % Std (α-amylase; 15 min): 14.02%
- α-amylase assay reading, Ave (α-amylase; 15 min): 0.56
- α-amylase assay reading (absorbance at 405 nm), single replicate (α-amylase; 15 min, sulfate hydrate): 0.53 and 0.61 and 0.54 and 0.56
- α-Amylase Inhibitor Activity (α-amylase): shown to have α-Amylase Inhibitor Activity
